Measured values as given in patent publication US10973794B2, “Dental composition and use” (CALSCIENCE INTERNATIONAL LTD., priority 2015, dated 2021).

Tests used:
XRCC5 = test: Taqman Real Time-PCR expression of XRCC5 in HFFs with and without H2O2 stress-induced premature senescence; assay type: cell-based, human; conditions: with and without 150 μM H2O2, FIG. 4
Method: (§1) The following results relate to the analysis of senescence tests on 1,5-Dicaffeoylquinic Acid (1,5-DCQA). FIG. 8 relates to 1,4-DCQA. The experiments were conducted using human foreskin fibroblasts (HFFs).
(§2) In the following experiments, HFFs were challenged for a period of two hours with 150 μM hydrogen peroxide (H2O2), to stimulate premature senescence in the presence and absence of 1,5-DCQA (1/1000 dilution), and subsequently assayed by Taqman Real Time-PCR for the expression of key senescence associated genes.
XRCC5 is a double strand break repair protein.
(§3) The results shown in Table 2 and FIGS. 2 to 7 were generated using the polymerase chain reaction (PCR), wherein the dCt and ddCT values are results used in statistical analysis. The abbreviation dCt relates to “delta cycle threshold” and the abbreviation ddCt relates to “delta delta cycle threshold”. In these experiments, HPRT (hypoxanthine phosphoribosyltransferase, a protein from the HPRT-1 gene) was used as a control.

p16 = test: Taqman Real Time-PCR expression of p16 in HFFs with and without H2O2 stress-induced premature senescence; assay type: cell-based, human
Method: as §1, §2, §3

[1] = tested on: human foreskin fibroblasts (HFFs); test: WST-1 Cell Proliferation Assay; assay type: cell-based
Method: as §1
The WST-1 Cell Proliferation Assay provides a sensitive and accurate assay for cell proliferation and cytotoxicity (cell viability). The WST assay is based on the cleavage of the tetrazolium salt WST-1 to formazan by cellular mitochondrial dehydrogenases. Expansion in the number of viable cells results in an increase in the overall activity of the mitochondrial dehydrogenases in the sample. The augmentation in enzyme activity results in an increase in the amount of formazan dye formed. The formazan dye produced by viable cells was quantified by a multi-well spectrophotometer by measuring the absorbance of the dye solution at 440 nm. The compound provided was tested in the WST assay over a range of dilutions. […] The results of the assay show the standard deviation (SD) for 1,5-DCQA and the control, and the mean values for 1,5-DCQA and the control.

Sirtuin 3 (SIRT3) = test: Taqman Real Time-PCR expression of Sirtuin 3 in HFFs with and without H2O2 stress-induced premature senescence; assay type: cell-based, human; conditions: following oxidant challenge, FIG. 7
Method: as §1, §2
(§4) These genes are involved in cell cycle regulation and mitochondrial stress responses. Challenge with a near lethal level of oxidant stress typically induces an increase in SIRT2 and decrease in SIRT3 expression. […] This is indicative of each having a potential for stimulating cell proliferation in the absence of oxidant challenge.
as §3

Sirtuin 2 (SIRT2) = test: Taqman Real Time-PCR expression of Sirtuin 2 in HFFs with and without H2O2 stress-induced premature senescence; assay type: cell-based, human; conditions: without stress, FIG. 6
Method: as §1, §2, §4, §3

## O=C(/C=C/c1ccc(O)c(O)c1)O[C@@H]1C[C@](OC(=O)/C=C/c2ccc(O)c(O)c2)(C(=O)O)C[C@@H](O)[C@H]1O [1,5-DCQA, 1,5-Dicaffeoylquinic Acid]
XRCC5
  expression of XRCC5 in comparison with the control data set: substantially unaltered expression
p16; 150 μM H2O2, FIG. 2
  effect on p16 expression following oxidant challenge: excellent protection from oxidant challenge
p16; no H2O2, FIG. 2
  effect on p16 expression in untreated cells: no stress effect on untreated cells
[1]; 1/1000 and 2/1000 dilutions
  effect on cell viability (WST assay): beneficial to cell viability
[1]; dilution 1/1000
  Mean (WST-1 assay, absorbance at 440 nm): 0.916
[1]; dilution 2/1000
  Mean (WST-1 assay, absorbance at 440 nm): 0.868
[1]; dilution 3/1000
  Mean (WST-1 assay, absorbance at 440 nm): 0.717
[1]; dilution 4/1000
  Mean (WST-1 assay, absorbance at 440 nm): 0.363
[1]; dilution 5/1000
  Mean (WST-1 assay, absorbance at 440 nm): 0.178
[1]; dilution 6/1000
  Mean (WST-1 assay, absorbance at 440 nm): 0.300
[1]; dilution 7/1000
  Mean (WST-1 assay, absorbance at 440 nm): 0.419
[1]; dilution 8/1000
  Mean (WST-1 assay, absorbance at 440 nm): 0.196
[1]; dilution 9/1000
  Mean (WST-1 assay, absorbance at 440 nm): 0.115
[1]; dilution 10/1000
  Mean (WST-1 assay, absorbance at 440 nm): 0.069
Sirtuin 3 (SIRT3)
  change in SIRT3 expression: increase in SIRT3 expression
Sirtuin 2 (SIRT2)
  change in SIRT2 expression: significant decrease in SIRT2 expression
